Results on 44 compounds are retold here after patent US20170239249A1, “QUINAZOLINE-BASED KINASE INHIBITORS” (Bristol-Myers Squibb Company, priority 2014, published 2017).

The assay addresses AAK1 (full length human) (Homo sapiens, UniProt Q2M2I8). Nature of the assay: HEK281 Cell-Based Assay (phospho-mu2 Western blot in HEK293F cells transfected with AAK1 and AP2M1). The settings on record: IC50 (nM), functional potency; inhibition of mu2 phosphorylation in HEK293F cells, 3 hours incubation, 5 concentrations.

Molecules are shown by their SMILES.

Sequence of AAK1 (full length human) (Q2M2I8 1-863 isoform Q2M2I8-2): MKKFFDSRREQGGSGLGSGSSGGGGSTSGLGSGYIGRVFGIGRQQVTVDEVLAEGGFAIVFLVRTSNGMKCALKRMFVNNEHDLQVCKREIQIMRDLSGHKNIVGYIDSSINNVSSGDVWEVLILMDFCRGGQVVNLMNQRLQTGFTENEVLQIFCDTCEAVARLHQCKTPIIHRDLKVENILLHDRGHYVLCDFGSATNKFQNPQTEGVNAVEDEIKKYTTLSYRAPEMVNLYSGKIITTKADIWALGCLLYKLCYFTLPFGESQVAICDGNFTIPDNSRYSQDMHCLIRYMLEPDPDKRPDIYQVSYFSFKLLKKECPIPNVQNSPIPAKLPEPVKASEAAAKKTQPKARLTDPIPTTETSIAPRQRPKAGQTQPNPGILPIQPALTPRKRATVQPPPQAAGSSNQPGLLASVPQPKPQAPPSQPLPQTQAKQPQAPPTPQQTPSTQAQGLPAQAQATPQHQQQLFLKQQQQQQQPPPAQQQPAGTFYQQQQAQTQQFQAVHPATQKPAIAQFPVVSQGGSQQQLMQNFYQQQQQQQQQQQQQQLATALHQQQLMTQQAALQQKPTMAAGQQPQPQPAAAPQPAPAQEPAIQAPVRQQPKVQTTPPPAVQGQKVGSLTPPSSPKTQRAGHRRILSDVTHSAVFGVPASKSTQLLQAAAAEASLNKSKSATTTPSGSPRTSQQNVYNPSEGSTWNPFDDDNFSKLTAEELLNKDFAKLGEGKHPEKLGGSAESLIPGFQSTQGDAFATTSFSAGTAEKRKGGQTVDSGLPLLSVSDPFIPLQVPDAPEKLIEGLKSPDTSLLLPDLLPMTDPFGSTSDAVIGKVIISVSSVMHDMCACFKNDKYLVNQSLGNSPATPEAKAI

`CCc1nc(C(N)C2CCCCC2)nc2ccc(-c3ccncc3)cc12` (single isomer, unassigned; (+)) [Example 8, (+)-Cyclohexyl(4-ethyl-6-(pyridin-4-yl)quinazolin-2-yl)methanamine] returned an IC50 of 61 nM. This counts as double-digit nanomolar.

Compound `CCc1nc(C(N)C2CCCCC2)nc2ccc(-c3ccncc3)cc12` (single isomer, unassigned; (-)) [Example 7, (−)-Cyclohexyl(4-ethyl-6-(pyridin-4-yl)quinazolin-2-yl)methanamine] showed an IC50 of 8 nM.

`CCc1nc(C(N)CC(C)C)nc2cc(OC)c(-c3cnco3)cc12` (single isomer, unassigned; enantiomer 1) [Example 86, 1-(4-Ethyl-7-methoxy-6-(oxazol-5-yl)quinazolin-2-yl)-3-methylbutan-1-amine (Enantiomer 1)] came in with an IC50 of 87 nM. In the case of `CCc1nc(C(N)CC(C)C)nc2cc(OC)c(-c3cnco3)cc12` (single isomer, unassigned; enantiomer 2) [Example 87, 1-(4-Ethyl-7-methoxy-6-(oxazol-5-yl)quinazolin-2-yl)-3-methylbutan-1-amine (Enantiomer 2)] it was 13 nM. For the compound `CC(C)CC(N)c1ncc2cc(-c3cnco3)ccc2n1` (centres unmarked) [Example 1, 3-Methyl-1-(6-(oxazol-5-yl)quinazolin-2-yl)butan-1-amine], the IC50 amounted to 420 nM. In turn, `Cc1nc(C(N)CC(C)C)nc2ccc(-c3cnco3)cc12` (centres unmarked) [Example 2, 3-Methyl-1-(4-methyl-6-(oxazol-5-yl)quinazolin-2-yl)butan-1-amine] had an IC50 of 170 nM. The same measure for `CCc1nc(C(N)CC(C)C)nc2ccc(-c3cnco3)cc12` (centres unmarked) [Example 3, 1-(4-Ethyl-6-(oxazol-5-yl)quinazolin-2-yl)-3-methylbutan-1-amine]: 77 nM; for `CCCc1nc(C(N)CC(C)C)nc2ccc(-c3cnco3)cc12` (centres unmarked) [Example 4, 3-Methyl-1-(6-(oxazol-5-yl)-4-propylquinazolin-2-yl)butan-1-amine]: 5300 nM; for `CCc1nc(C(N)CC(C)C)nc2c(OC)cc(-c3cnco3)cc12` (centres unmarked) [Example 5, 1-(4-Ethyl-8-methoxy-6-(oxazol-5-yl)quinazolin-2-yl)-3-methylbutan-1-amine]: 75 nM. In the case of `CCc1nc(C(N)CC(C)C)nc2ccc(-c3ccncc3OC)cc12` (centres unmarked) [Example 6, 1-(4-Ethyl-6-(3-methoxypyridin-4-yl)quinazolin-2-yl)-3-methylbutan-1-amine] it was 36 nM.

As to `CCc1nc(C(N)CC2CCCCC2)nc2ccc(-c3ccncc3)cc12` (centres unmarked) [Example 9, 2-Cyclohexyl-1-(4-ethyl-6-(pyridin-4-yl)quinazolin-2-yl)ethanamine], 260 nM corresponded to half-maximal inhibition (IC50).

For `CCc1nc(CCC2CCCC2)nc2ccc(-c3ccncc3)cc12` [Example 10, 2-(2-Cyclopentylethyl)-4-ethyl-6-(pyridin-4-yl)quinazoline], the IC50 was 4800 nM.

`COc1c(-c2cnco2)ccc2nc(C(N)CC(C)C)ncc12` (centres unmarked) [Example 11, 1-(5-Methoxy-6-(oxazol-5-yl)quinazolin-2-yl)-3-methylbutan-1-amine] returned an IC50 of 360 nM. The same measure for `CC(C)CC(N)c1nc2ccc(-c3cnco3)cc2c(=O)[nH]1` (centres unmarked) [Example 12, 2-(1-Amino-3-methylbutyl)-6-(oxazol-5-yl)quinazolin-4-ol]: 140 nM. The same measure for `CC(C)CC(N)c1nc2ccc(-c3ccncc3)cc2c(=O)[nH]1` (centres unmarked) [Example 13, 2-(1-Amino-3-methylbutyl)-6-(pyridin-4-yl)quinazolin-4-ol]: 93 nM. `COc1nc(C(N)CC(C)C)nc2ccc(-c3cnco3)cc12` (centres unmarked) [Example 14, 1-(4-Methoxy-6-(oxazol-5-yl)quinazolin-2-yl)-3-methylbutan-1-amine] registered an IC50 of 230 nM. `CCOc1nc(C(N)CC(C)C)nc2ccc(-c3cnco3)cc12` (centres unmarked) [Example 15, 1-(4-Ethoxy-6-(oxazol-5-yl)quinazolin-2-yl)-3-methylbutan-1-amine]: half-maximal inhibition (IC50) was put at 410 nM. `CNc1nc(C(N)CC(C)C)nc2ccc(-c3cnco3)cc12` (centres unmarked) [Example 16, 2-(1-Amino-3-methylbutyl)-N-methyl-6-(oxazol-5-yl)quinazolin-4-amine] had an IC50 of 210 nM.

Compound `CC(C)CC(N)c1nc(N(C)C)c2cc(-c3cnco3)ccc2n1` (centres unmarked) [Example 17, 2-(1-Amino-3-methylbut)-N,N-dimethyl-6-(oxazol-5-yl)quinazolin-4-amine] registered an IC50 of 360 nM. In the case of `CCN(CC)c1nc(C(N)CC(C)C)nc2ccc(-c3cnco3)cc12` (centres unmarked) [Example 18, 2-(1-Amino-3-methylbutyl)-N,N-diethyl-6-(oxazol-5-yl)quinazolin-4-amine] it was 130 nM; in that of `CC(C)CC(N)c1nc(N2CCCC2)c2cc(-c3cnco3)ccc2n1` (centres unmarked) [Example 19, 3-Methyl-1-(6-(oxazol-5-yl)-4-(pyrrolidin-1-yl)quinazolin-2-yl)butan-1-amine], 760 nM.

Take `CCNc1nc(C(N)CC(C)C)nc2ccc(-c3cnco3)cc12` (centres unmarked) [Example 20, 2-(1-Amino-3-methylbutyl)-N-ethyl-6-(oxazol-5-yl)quinazolin-4-amine]: the half-maximal inhibitory concentration (IC50) came out at 850 nM. `CC(C)CC(N)c1nc(NCCO)c2cc(-c3cnco3)ccc2n1` (centres unmarked) [Example 21, 2-((2-(1-Amino-3-methylbutyl)-6-(oxazol-5-yl)quinazolin-4-yl)amino)ethanol] displayed an IC50 of 1200 nM. The same measure for `COCCNc1nc(C(N)CC(C)C)nc2ccc(-c3cnco3)cc12` (centres unmarked) [Example 22, 2-(1-Amino-3-methylbutyl)-N-(2-methoxyethyl)-6-(oxazol-5-yl)quinazolin-4-amine]: 1300 nM; for `CNc1nc(C(N)CC(C)C)nc2ccc(-c3ccncc3)cc12` (centres unmarked) [Example 23, 2-(1-Amino-3-methylbutyl)-N-methyl-6-(pyridin-4-yl)quinazolin-4-amine]: 79 nM; for `CCNc1nc(C(N)CC(C)C)nc2ccc(-c3ccncc3)cc12` (centres unmarked) [Example 24, 2-(1-Amino-3-methylbutyl)-N-ethyl-6-(pyridin-4-yl)quinazolin-4-amine]: 86 nM. In the case of `CCN(CC)c1nc(C(N)CC(C)C)nc2ccc(-c3ccncc3)cc12` (centres unmarked) [Example 25, 2-(1-Amino-3-methylbutyl)-N,N-diethyl-6-(pyridin-4-yl)quinazolin-4-amine] it was 22 nM; in that of `COc1cnccc1-c1ccc2nc(C(N)CC(C)C)nc(N(C)C)c2c1` (centres unmarked) [Example 26, 2-(1-Amino-3-methylbutyl)-6-(3-methoxypyridin-4-yl)-N,N-dimethylquinazolin-4-amine], 31 nM; in that of `CCN(CC)c1nc(C(N)CC(C)C)nc2ccc(-c3ccncc3OC)cc12` (centres unmarked) [Example 27, 2-(1-Amino-3-methylbutyl)-N,N-diethyl-6-(3-methoxypyridin-4-yl)quinazolin-4-amine], 20 nM. In the case of `CCNc1nc(C(N)CC(C)C)nc2ccc(-c3ccncc3OC)cc12` (centres unmarked) [Example 28, 2-(1-Amino-3-methylbutyl)-N-ethyl-6-(3-methoxypyridin-4-yl)quinazolin-4-amine] it was 380 nM. As for `COc1cnccc1-c1ccc2nc(CCC(C)C)nc(N(C)C)c2c1` [Example 29, 2-Isopentyl-6-(3-methoxypyridin-4-yl)-N,N-dimethylquinazolin-4-amine], half-maximal inhibition (IC50) required 54 nM. In the case of `CC(C)CC(N)c1nc(C#N)c2cc(-c3cnco3)ccc2n1` (centres unmarked) [Example 30, 2-(1-Amino-3-methylbutyl)-6-(oxazol-5-yl)quinazoline-4-carbonitrile] it was 17 nM; in that of `CC(C)CCc1nc(C#N)c2cc(-c3cnco3)ccc2n1` [Example 31, 2-Isopentyl-6-(oxazol-5-yl)quinazoline-4-carbonitrile], 640 nM.

Turning to `COc1cc2nc(C(N)CC(C)C)nc(C#N)c2cc1-c1cnco1` (centres unmarked) [Example 32, 2-(1-Amino-3-methylbutyl)-7-methoxy-6-(oxazol-5-yl)quinazoline-4-carbonitrile], the IC50 is 6 nM. Against the preceding compound, the IC50 is about 110-fold lower. Regarding `CC(C)CC(N)c1nc(C#N)c2cc(-c3ccncc3)ccc2n1` (centres unmarked) [Example 33, 2-(1-Amino-3-methylbutyl)-6-(pyridin-4-yl)quinazoline-4-carbonitrile], it took 14 nM to reach half-maximal inhibition (IC50). In the case of `COc1cnccc1-c1ccc2nc(C(N)CC(C)C)nc(C#N)c2c1` (centres unmarked) [Example 34, 2-(1-Amino-3-methylbutyl)-6-(3-methoxypyridin-4-yl)quinazoline-4-carbonitrile], half-maximal inhibition (IC50) required 12 nM.

As to `COc1cc2nc(C(N)CC(C)C)nc(C#N)c2cc1-c1ccncc1` (centres unmarked) [Example 35, 2-(1-Amino-3-methylbutyl)-7-methoxy-6-(pyridin-4-yl)quinazoline-4-carbonitrile], the midpoint of inhibition, the IC50, lay at 68 nM.

In turn, `COc1cc2nc([C@H](N)CC(C)C)ncc2cc1-c1cnco1` [Example 36, (R)-1-(7-Methoxy-6-(oxazol-5-yl)quinazolin-2-yl)-3-methylbutan-1-amine] registered an IC50 of 113 nM.

Compound `COc1nc(CCC(C)C)nc2ccc(-c3cn[nH]c3)cc12` [Example 37, 2-Isopentyl-4-methoxy-6-(1H-pyrazol-4-yl)quinazoline] came in with an IC50 of 1010 nM. The compound `COc1nc(CCC(C)C)nc2ccc(-c3ccncc3)cc12` [Example 38, 2-Isopentyl-4-methoxy-6-(pyridin-4-yl)quinazoline] gave an IC50 of 1070 nM.

Turning to `CNc1nc(CCC(C)C)nc2ccc(-c3cnco3)cc12` [Example 39, 2-Isopentyl-N-methyl-6-(oxazol-5-yl)quinazolin-4-amine], the half-maximal inhibitory concentration (IC50) amounted to 1140 nM.

Regarding `CC(C)CCc1nc(N(C)C)c2cc(-c3cnco3)ccc2n1` [Example 40, 2-Isopentyl-N,N-dimethyl-6-(oxazol-5-yl)quinazolin-4-amine], the IC50 stood at 412 nM. In turn, `COc1nc(CCC(C)C)nc2ccc(-c3cnco3)cc12` [Example 41, 5-(2-Isopentyl-4-methoxyquinazolin-6-yl)oxazole] displayed an IC50 of 3150 nM. In the case of `CC(C)CCc1nc2ccc(-c3cnco3)cc2c(=O)[nH]1` [Example 42, 2-Isopentyl-6-(oxazol-5-yl)quinazolin-4(3H)-one], the half-inhibitory concentration (IC50) turned out to be 49 nM.

As usually defined, the IC50 is the concentration that gives 50% inhibition. Lower therefore signals inhibition by little substance.
